Data as given in patent US20170003277A1 (priority 2015, published 2017).

Tested on: THP-1 human monocyte cell line
Assay: Pathway enrichment (DAVID) in THP-1 study: Copaxone vs mannitol and Probioglat vs GA
Assay type: cell-based
Conditions: Copaxone vs mannitol, 6 hours

glatiramer acetate [Copaxone®]
Fold Enrichment: GO: 0003006~reproductive developmental process (top downregulated genes): 6.25
Fold Enrichment: GO: 0007275~multicellular organismal development (top downregulated genes): 2.168
Fold Enrichment: GO: 0009653~anatomical structure morphogenesis (top downregulated genes): 2.643
Fold Enrichment: GO: 0030154~cell differentiation (top downregulated genes): 2.556
Fold Enrichment: GO: 0032502~developmental process (top downregulated genes): 1.984
Fold Enrichment: GO: 0048513~organ development (top downregulated genes): 2.76
Fold Enrichment: GO: 0048731~system development (top downregulated genes): 2.396
Fold Enrichment: GO: 0048856~anatomical structure development (top downregulated genes): 2.165
Fold Enrichment: GO: 0048869~cellular developmental process (top downregulated genes): 2.411
Fold Enrichment: G0: 0001568~blood vessel development (top upregulated genes): 3.472
Fold Enrichment: G0: 0002819~regulation of adaptive immune response (top upregulated genes): 7.067
Fold Enrichment: G0: 0030154~cell differentiation (top upregulated genes): 1.794
Fold Enrichment: GO: 0000267~cell fraction (top upregulated genes): 1.993
Fold Enrichment: GO: 0001501~skeletal system development (top upregulated genes): 3.144
Fold Enrichment: GO: 0001525~angiogenesis (top upregulated genes): 4.224
Fold Enrichment: GO: 0001608~nucleotide receptor activity, G-protein coupled (top upregulated genes): 13.87
Fold Enrichment: GO: 0001614~purinergic nucleotide receptor (top upregulated genes): 12.55
Fold Enrichment: GO: 001816~cytokine production (top upregulated genes): 7.526
Fold Enrichment: GO: 0001871~pattern binding (top upregulated genes): 5.244
Fold Enrichment: GO: 0001944~vasculature development (top upregulated genes): 3.428
Fold Enrichment: GO: 0002376~immune system process (top upregulated genes): 2.852
Fold Enrichment: GO: 0002682~regulation of immune system process (top upregulated genes): 3.763
Fold Enrichment: GO: 0002683~negative regulation of immune (top upregulated genes): 5.682
Fold Enrichment: GO: 0002684~positive regulation of immune system process (top upregulated genes): 4.025
Fold Enrichment: GO: 0002694~regulation of leukocyte activation (top upregulated genes): 4.14
Fold Enrichment: GO: 0002697~regulation of immune effector process (top upregulated genes): 6.009
Fold Enrichment: GO: 0002698~negative regulation of immune effector process (top upregulated genes): 15.05
Fold Enrichment: GO: 0002698~positive regulation of response to external stimulus (top upregulated genes): 6.536
Fold Enrichment: GO: 0002703~regulation of leukocyte mediated immunity (top upregulated genes): 7.43
Fold Enrichment: GO: 0002822~regulation of adaptive immune response based on somatic recombination of immune receptors built from immunoglobulin superfamily domains (top upregulated genes): 7.244
Fold Enrichment: GO: 0004222~metalloendopeptidase activity (top upregulated genes): 6.148
Fold Enrichment: GO: 0004871~signal transducer activity (top upregulated genes): 2.537
Fold Enrichment: GO: 0004872~receptor activity (top upregulated genes): 2.976
Fold Enrichment: GO: 0004888~transmembrane receptor activity (top upregulated genes): 3.768
Fold Enrichment: GO: 0004930~G-protein coupled receptor activity (top upregulated genes): 4.293
Fold Enrichment: GO: 0005576~extracellular region (top upregulated genes): 2.824
Fold Enrichment: GO: 0005578~proteinaceous extracellular matrix (top upregulated genes): 5.31
Fold Enrichment: GO: 0005615~extracellular space (top upregulated genes): 3.371
Fold Enrichment: GO: 0005624~membrane fraction (top upregulated genes): 2.128
Fold Enrichment: GO: 0005626~insoluble friction (top upregulated genes): 2.12
Fold Enrichment: GO: 0005886~plasma membrane (top upregulated genes): 2.42
Fold Enrichment: GO: 0005887~integral to plasma membrane (top upregulated genes): 3.25
Fold Enrichment: GO: 0006928~cell motion (top upregulated genes): 2.469
Fold Enrichment: GO: 0006935~chemotaxis (top upregulated genes): 4.651
Fold Enrichment: GO: 0006950~response to stress (top upregulated genes): 1.897
Fold Enrichment: GO: 0006952~defense response (top upregulated genes): 3.418
Fold Enrichment: GO: 0006954~inflammatory response (top upregulated genes): 4.475
Fold Enrichment: GO: 0006955~immune response (top upregulated genes): 3.57
Fold Enrichment: GO: 0007155~cell adhesion (top upregulated genes): 2.948
Fold Enrichment: GO: 0007165~signal transduction (top upregulated genes): 1.567
Fold Enrichment: GO: 0007166~cell surface receptor linked signal transduction (top upregulated genes): 2.246
Fold Enrichment: GO: 0007186~G-protein coupled receptor protein signaling pathway (top upregulated genes): 2.726
Fold Enrichment: GO: 0007275~multicellular organismal development (top upregulated genes): 1.742
Fold Enrichment: GO: 0007610~behavior (top upregulated genes): 2.76
Fold Enrichment: GO: 0007626~locomotory behavior (top upregulated genes): 4.081
Fold Enrichment: GO: 0009605~response to external stimulus (top upregulated genes): 3.127
Fold Enrichment: GO: 0009607~response to biotic stimulus (top upregulated genes): 3.376
Fold Enrichment: GO: 0009611~response to wounding (top upregulated genes): 4.097
Fold Enrichment: GO: 0009617~response to bacterium (top upregulated genes): 4.268
Fold Enrichment: GO: 0009897~external side of plasma membrane (top upregulated genes): 6.497
Fold Enrichment: GO: 0009986~cell surface (top upregulated genes): 4.067
Fold Enrichment: GO: 0010033~response to organic substance (top upregulated genes): 2.03
Fold Enrichment: GO: 0016020~membrane (top upregulated genes): 1.538
Fold Enrichment: GO: 0016021~integral to membrane (top upregulated genes): 1.676
Fold Enrichment: GO: 0016477~cell migration (top upregulated genes): 3.203
Fold Enrichment: GO: 0016502~nucleotide receptor activity (top upregulated genes): 12.55
Fold Enrichment: GO: 0019955~cytokine binding (top upregulated genes): 6.971
Fold Enrichment: GO: 0022610~biological adhesion (top upregulated genes): 2.94
Fold Enrichment: GO: 0030247~polysaccharide binding (top upregulated genes): 5.244
Fold Enrichment: GO: 0030574~collagen cataboltc process (top upregulated genes): 20.7
